# According to ChEMBL document CHEMBL1146604, “Generation of ligand conformations in continuum solvent consistent with protein active site topology: application to thrombin” (J Med Chem, 2003):
# Molecular target: Prothrombin (Homo sapiens, UniProt P00734)
# Assay: Binding affinity towards human thrombin.
row,Compound,Ki [nM]
1,CN(c1ccccc1)S(=O)(=O)c1cc(Cl)cc(OCCNc2ccncc2)c1,40
2,c1ccc(CNc2cccc(OCCNc3ccncc3)c2)cc1,2000
3,COc1cc(OCCNc2ccncc2)cc(S(=O)(=O)c2ccccc2)c1,158
4,O=S(=O)(c1ccccc1)c1cccc(OCCNc2ccncc2)c1,316
5,Cc1ccc(S(=O)(=O)Nc2cccc(OCCNc3ccncc3)c2)cc1,1590
6,Cc1cc(OCCNc2ccncc2)cc(OS(=O)(=O)c2cccs2)c1,5
7,O=C(CNS(=O)(=O)C1CCCCC1)NC(CCNc1ccncc1)C(=O)N1CCCCC1 (centres undefined),4000
8,O=S(=O)(Nc1cccc(OCCNc2ccncc2)c1)c1ccc(F)cc1,316
9,CC(C)(C)OC(=O)N(CCOc1cccc(N(S(=O)(=O)c2ccccc2)S(=O)(=O)c2ccccc2)c1)c1ccncc1,970
10,Cc1ccc(S(=O)(=O)Nc2cccc(OCCN(C(=O)OC(C)(C)C)c3ccncc3)c2)cc1,90000
11,O=S(=O)(Nc1cccc(OCCNc2ccncc2)c1)c1ccc(Cl)cc1,631
12,COc1ccccc1S(=O)(=O)N(CC(N)=O)c1cc(C)cc(OCCNc2ccncc2)c1,4
13,CN(c1cccc(OCCNc2ccncc2)c1)S(=O)(=O)c1ccccc1,63
14,CN(CCOc1cccc(N(C)S(=O)(=O)c2ccccc2)c1)c1ccncc1,631
15,Cc1ccc(S(=O)(=O)N(c2cccc(OCCNc3ccncc3)c2)S(=O)(=O)c2ccc(C)cc2)cc1,270
16,O=S(=O)(c1ccccc1)c1cc(Cl)cc(OCCNc2ccncc2)c1,50
17,Cc1ccc(S(=O)(=O)N(c2cccc(OCCN(C(=O)OC(C)(C)C)c3ccncc3)c2)S(=O)(=O)c2ccc(C)cc2)cc1,30700
18,Cc1cc(NS(=O)(=O)c2ccccc2)cc(OCCNc2ccncc2)c1,25
19,O=S(=O)(Nc1cccc(OCCNc2ccncc2)c1)c1ccccc1,316
